Test systems include HCT-116 colon; HT29 colon; K-562 leukemia; KM12 colon; NCI-H522 lung; OVCAR-4 ovarian; OVCAR-8 ovarian; SNB-75 CNS; CCRF-CEM leukemia; OVCAR-5 ovarian.
What all share (assay): growth of human tumour cells (NCI), 48 h

The structures appear in SMILES notation.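 96-well plates; 48 h exposure; 5 concentrations. Endpoints by linear interpolation between flanking doses. Not reached: highest tested concentration assigned. Abbreviation: GI50, concentration required for 50% inhibition of growth. The concentration for full growth arrest is given as TGI.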

Consider `CCCCCCCCCCCCCC(=O)OCC1OC(n2cc(F)c(=O)[nH]c2=O)C(N)C(OC(=O)CCCCCCCCCCCCC)C1O` (configuration not stated), for which the TGI in the assay with HCT-116 colon, in the assay with HT29 colon, in the assay on K-562 leukemia, with KM12 colon, in the assay with NCI-H522 lung and with OVCAR-4 ovarian was more than 100 µM throughout. In addition, the TGI in the assay with OVCAR-8 ovarian and in the assay with SNB-75 CNS was more than 100 µM each time.
In the case of `OC1CCC[C@@H]1Sc1ccccc1` (some centres not stated), the TGI in the assay with CCRF-CEM leukemia, in the assay with HCT-116 colon, in the assay with K-562 leukemia, in the assay with KM12 colon, in the assay with OVCAR-4 ovarian and in the assay on OVCAR-8 ovarian was more than 100 µM each time. The compound also registered a TGI in the assay on SNB-75 CNS of more than 100 µM.
Take `NC(=Nc1nc(-c2ccccn2)cc2ccccc12)c1ccccn1`: the GI50 in the assay with CCRF-CEM leukemia was 0.00229 µM; in the assay on HCT-116 colon it was 0.00151 µM; in the assay with HT29 colon, 0.0708 µM; in the assay on K-562 leukemia it was 0.0199 µM; in the assay with KM12 colon, 0.336 µM; in the assay on NCI-H522 lung it was 0.0458 µM. Besides, the values for the GI50 in the assay with OVCAR-4 ovarian, with OVCAR-5 ovarian and in the assay with OVCAR-8 ovarian were 0.0798 µM, 0.176 µM and 0.0505 µM, respectively. Besides, the TGI in the assay with HCT-116 colon was more than 100 µM; with HT29 colon, more than 100 µM; in the assay on K-562 leukemia, 5.3 µM; in the assay on KM12 colon it was more than 56.7 µM; in the assay with OVCAR-5 ovarian it was more than 100 µM; in the assay with OVCAR-8 ovarian, 15.5 µM.
As for `COc1ccc2c(c1)C(=O)c1c-2n(CCCN)c(=O)c2cc(OC)c(OC)cc12`, the GI50 in the assay with CCRF-CEM leukemia was less than 0.01 µM; with HCT-116 colon, 0.0287 µM; with HT29 colon, 0.0684 µM; with KM12 colon, 0.169 µM; with NCI-H522 lung it was less than 0.01 µM; in the assay on OVCAR-5 ovarian it was 1.59 µM. Moreover, the GI50 with SNB-75 CNS was 1.16 µM. Moreover, the TGI in the assay with HCT-116 colon was determined as 0.181 µM; with HT29 colon, 0.214 µM; with KM12 colon, 0.627 µM; with NCI-H522 lung, 1.03 µM; with OVCAR-5 ovarian it was 3.01 µM; with SNB-75 CNS it was 2.55 µM.
For `COC(=O)C1=C(O)[C@H](C(=O)OC)[C@]2(O)[C@@H](C(=O)OC)[C@H]1C[C@@H](c1ccc(OC(=O)/C=C/c3ccco3)cc1)[C@@H]2C(=O)OC`, the GI50 with HCT-116 colon was 4.9 µM; in the assay with HT29 colon it was 11.5 µM; in the assay with K-562 leukemia, 19.7 µM; in the assay on KM12 colon it was 43.7 µM; in the assay with OVCAR-5 ovarian, 19.1 µM; in the assay on OVCAR-8 ovarian, 42.4 µM. Besides, the TGI in the assay with HCT-116 colon was 17.6 µM; in the assay with HT29 colon it was more than 100 µM; with K-562 leukemia, more than 100 µM; in the assay with KM12 colon it was more than 100 µM; in the assay with OVCAR-5 ovarian it was 43.3 µM; in the assay on OVCAR-8 ovarian, more than 100 µM.
For the compound `Cn1nc(-c2ccccc2)c(C(=O)/C=C/c2ccc(F)cc2)c(N2CCOCC2)c1=O`, the TGI was 49.2 µM in the assay with CCRF-CEM leukemia; 14.3 µM in the assay on HCT-116 colon; 30.2 µM with HT29 colon; 53.2 µM with K-562 leukemia; 36.4 µM in the assay on NCI-H522 lung; more than 100 µM in the assay with OVCAR-8 ovarian.
Take `Cc1cc(C)nc(NS(=O)(=O)c2ccc(NC(=O)c3ccc(Cl)c4c(Nc5ccc(S(=O)(=O)N=C(N)N)cc5)c5ccccc5nc34)cc2)n1`: the TGI was more than 100 µM in the assay on HCT-116 colon; 30.2 µM in the assay with HT29 colon; more than 100 µM with K-562 leukemia; more than 100 µM with KM12 colon; 36.1 µM in the assay with NCI-H522 lung; more than 100 µM in the assay with OVCAR-4 ovarian. Further, the TGI with OVCAR-5 ovarian, in the assay on OVCAR-8 ovarian and with SNB-75 CNS was more than 100 µM throughout.
For `CC1=NN(C(=O)c2ccc(Cl)cc2)C(=O)/C1=C/c1ccco1`, the TGI in the assay with CCRF-CEM leukemia, in the assay with HCT-116 colon, in the assay on HT29 colon, in the assay with K-562 leukemia, in the assay on KM12 colon and in the assay on NCI-H522 lung was more than 100 µM throughout. Further, the TGI in the assay with OVCAR-4 ovarian, in the assay on OVCAR-5 ovarian and in the assay on OVCAR-8 ovarian was more than 100 µM throughout.
For `CCOC(=O)C1SC(=Nc2ccc(Cl)cc2C)N=C1C` (configuration not stated), the TGI with HCT-116 colon stood at 28.4 µM; in the assay on HT29 colon, 30.3 µM; with K-562 leukemia, 51.3 µM; in the assay on KM12 colon, 35.1 µM; with NCI-H522 lung, 27 µM; with OVCAR-4 ovarian it was 56.2 µM. Besides, the TGI in the assay on OVCAR-5 ovarian is 45.9 µM; in the assay on OVCAR-8 ovarian it was more than 100 µM; in the assay on SNB-75 CNS, 69.9 µM.
Regarding `C=C1NC(=O)C(CC(C(=O)C(=O)Nc2c(C)cccc2C(C)(C)C)C(=O)c2ccc3ccccc3c2)C(=O)N1` (configuration not stated), the TGI in the assay on CCRF-CEM leukemia, in the assay on HCT-116 colon, with HT29 colon, in the assay on K-562 leukemia, in the assay on KM12 colon and in the assay on OVCAR-4 ovarian was more than 100 µM in each case. Further, the TGI in the assay on OVCAR-5 ovarian, in the assay with OVCAR-8 ovarian and with SNB-75 CNS was more than 100 µM each time.
As for `NNC(=O)N/N=C1\C(=O)N(c2nccs2)C(=O)C(=O)C1c1nc2ccccc2s1` (configuration not stated), the TGI in the assay with HCT-116 colon, with HT29 colon, with KM12 colon, in the assay with OVCAR-4 ovarian, with OVCAR-5 ovarian and with OVCAR-8 ovarian was more than 100 µM each time. This compound also showed a TGI in the assay on SNB-75 CNS of more than 100 µM.
As for `CC1CCc2c(c(CC3CC(=O)NC(=O)C3)nn2-c2ccccc2)C1` (configuration not stated), the TGI in the assay with CCRF-CEM leukemia, with HCT-116 colon, in the assay on HT29 colon, in the assay on K-562 leukemia, in the assay on KM12 colon and with OVCAR-4 ovarian was more than 100 µM throughout. In addition, the TGI in the assay on OVCAR-5 ovarian, in the assay on OVCAR-8 ovarian and with SNB-75 CNS was more than 100 µM throughout.
Take `C/C(CCn1[nH]c(=O)ccc1=O)=N\Nc1ccc([N+](=O)[O-])cc1[N+](=O)[O-]`: the TGI in the assay on CCRF-CEM leukemia, with HCT-116 colon, in the assay with HT29 colon, in the assay with K-562 leukemia, in the assay with KM12 colon and with OVCAR-4 ovarian was more than 100 µM throughout. Further, the TGI in the assay on OVCAR-5 ovarian, in the assay with OVCAR-8 ovarian and in the assay on SNB-75 CNS was more than 100 µM throughout.

The record behind these values is PubChem BioAssay (NCI).
